According to ChEMBL document CHEMBL1201862, “PubChem BioAssay data set” (2004):
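Tested at 5 concentrations; 48 h exposure; 96-well plates; endpoints linearly interpolated, else capped at highest concentration. GI50: concentration for 50% inhibition of growth.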 The source made the active and inactive calls. Cut-off read from the data, not from the text of the source: active = GI50 up to about 1.1 µM and inactive = higher.

Columns and labels:
Assay in all cases: DTP human tumour cell line panel, 48 h
HCT-116 = test system: HCT-116
TK-10 = test system: TK-10
UACC-62 = test system: UACC-62
A549 = test system: A549
SK-MEL-5 = test system: SK-MEL-5
NCI-H23 = test system: NCI-H23
786-0 = test system: 786-0
MOLT-4 = test system: MOLT-4
SNB-75 = test system: SNB-75
NCI-H460 = test system: NCI-H460
PC-3 = test system: PC-3
SR = test system: SR
LOX IMVI = test system: LOX IMVI
SF-295 = test system: SF-295
OVCAR-5 = test system: OVCAR-5
SF-539 = test system: SF-539
SK-MEL-28 = test system: SK-MEL-28
M14 = test system: M14
A498 = test system: A498

Measured: GI50

COC(=O)C(Cc1ccc(OC)cc1O)NC(=O)OC(C)(C)C (configuration not stated)
inactive: HCT-116 > 100 µM | TK-10 > 100 µM | UACC-62 > 100 µM | A549 > 100 µM | SK-MEL-5 61.7 µM | NCI-H23 86.3 µM | 786-0 > 100 µM | MOLT-4 > 100 µM | SNB-75 > 100 µM | NCI-H460 > 100 µM | PC-3 > 100 µM | SR > 100 µM | LOX IMVI > 100 µM | SF-295 > 100 µM | OVCAR-5 > 100 µM | SF-539 > 100 µM | SK-MEL-28 > 100 µM | M14 > 100 µM

CC(C)OP(=O)(CCCCCCCCC/C=C/c1ccc2c(c1)OCCOCCOCCOCCO2)OC(C)C
inactive: HCT-116 3.38 µM | TK-10 9.29 µM | UACC-62 3.79 µM | A549 3.49 µM | SK-MEL-5 2.74 µM | NCI-H23 2.85 µM | 786-0 3.78 µM | MOLT-4 3.04 µM | SNB-75 3.01 µM | NCI-H460 2.61 µM | PC-3 2.84 µM | SR 4.22 µM | LOX IMVI 2.16 µM | SF-295 3.08 µM | OVCAR-5 3.42 µM | SF-539 2.62 µM | SK-MEL-28 6.61 µM | M14 3.52 µM

CC(=O)Oc1ccn2nc(C)c(Cc3c(C)nn4ccc(OC(C)=O)cc34)c2c1
inactive: HCT-116 > 100 µM | TK-10 > 100 µM | UACC-62 98.2 µM | A549 > 100 µM | SK-MEL-5 > 100 µM | NCI-H23 > 100 µM | 786-0 > 100 µM | MOLT-4 49.8 µM | SNB-75 54.8 µM | NCI-H460 50.9 µM | PC-3 > 10 µM | SR > 100 µM | LOX IMVI 79.1 µM | SF-295 23 µM | OVCAR-5 > 100 µM | SF-539 51.4 µM | SK-MEL-28 > 100 µM | M14 > 100 µM

COC(=O)c1ccccc1CC1Cc2ccc3c(c2C1=O)CCC3 (configuration not stated)
inactive: HCT-116 37.1 µM | TK-10 > 100 µM | UACC-62 39.5 µM | A549 > 100 µM | SK-MEL-5 23 µM | NCI-H23 39.6 µM | 786-0 80.5 µM | MOLT-4 25.1 µM | SNB-75 13.8 µM | NCI-H460 92.3 µM | PC-3 22.5 µM | SR 31 µM | LOX IMVI 29.5 µM | SF-295 57.1 µM | OVCAR-5 > 100 µM | SF-539 > 100 µM | SK-MEL-28 37.2 µM | M14 39.5 µM

CC(=O)C(=C(I)I)c1ccccc1
inactive: HCT-116 15.4 µM | UACC-62 25.5 µM | A549 24.6 µM | SK-MEL-5 15.1 µM | A498 22 µM | NCI-H23 16.8 µM | 786-0 19.7 µM | MOLT-4 13.4 µM | NCI-H460 33.4 µM | PC-3 31.5 µM | SR 13.1 µM | LOX IMVI 18.1 µM | SF-295 25.9 µM | OVCAR-5 23.3 µM | SF-539 21.1 µM | SK-MEL-28 19.5 µM | M14 14.5 µM

O=C1CC2C(=O)C1C(C(=O)O)C2C(=O)O (configuration not stated)
inactive: HCT-116 > 100 µM | TK-10 > 100 µM | UACC-62 > 100 µM | A549 > 100 µM | SK-MEL-5 > 100 µM | A498 > 100 µM | NCI-H23 > 100 µM | 786-0 > 100 µM | MOLT-4 > 100 µM | NCI-H460 > 100 µM | PC-3 > 100 µM | SR > 100 µM | LOX IMVI > 100 µM | SF-295 > 100 µM | OVCAR-5 > 100 µM | SF-539 > 100 µM | SK-MEL-28 > 100 µM | M14 > 100 µM
